Earlier results in article PMC12308805, “Ultrahigh-Throughput Virtual Screening Strategies against PPI Targets: A Case Study of STAT Inhibitors” (Journal of Chemical Information and Modeling, 2025).
Square brackets hold non-standard residues; d marks the D form. Peptide text beside a SMILES is read from it. pY = N[C@@H](Cc1ccc(OP(=O)(O)O)cc1)C(=O)O; d(aThr) = C[C@@H](O)[C@@H](N)C(=O)O; Nle = CCCC[C@H](N)C(=O)O

System: STAT3
Details: cited from earlier work

SMILES | Type (known STAT3 active)
CC(C)C[C@H](NC(=O)/C=C/c1ccc(OP(=O)(O)O)cc1)C(=O)N1CCC[C@H]1C(=O)N[C@H](C(=O)NCc1ccccc1)[C@@H](C)OC(N)=O [CHEMBL376795] | Active

Same assay, conditions: sheet 6QHD_actives_decoys, retrospective screening set for STAT3 SH2 domain (PDB 6QHD); decoys are presumed inactives, not tested; ref DUD-E; cited from earlier work

SMILES | Type
CC/C=C\C/C=C\C/C=C\CCCCCCCC(=O)OC[C@@H](O)CO[C@H]1O[C@@H](CO[C@H]2O[C@@H](CO)[C@H](O)[C@@H](O)[C@@H]2O)[C@@H](O)[C@@H](O)[C@@H]1O [Decoy758] | Inactive (Decoy)
COc1ccc2[nH]cc(CCN/C(=N/C(=O)/C=C/c3cc(OC)c(OC)c(OC)c3)Nc3nc(C)cc(C)n3)c2c1 [Decoy944] | Inactive (Decoy)
COc1cc(Cc2cc(OC)c(OC)cc2NS(=O)(=O)c2ccc3c(c2)NC(=O)CO3)c(NS(=O)(=O)c2ccc3c(c2)NC(=O)CO3)cc1OC [Decoy940] | Inactive (Decoy)
COc1cc([C@@H]2OC[C@H]3[C@@H]2CO[C@@H]3c2cc(OC)c(O[C@@H]3O[C@H](CO)[C@@H](O)[C@H](O)[C@H]3O[C@@H]3OC[C@](O)(CO)[C@H]3O)c(OC)c2)cc(OC)c1O [Decoy817] | Inactive (Decoy)
COc1cc(/C=C/C(=O)OC[C@H]2O[C@H](O[C@]3(CO)O[C@H](CO)[C@@H](O)[C@@H]3O)[C@H](O)[C@@H](O)[C@@H]2O)cc(OC)c1O [Decoy815] | Inactive (Decoy)
CCOc1ccccc1NC(=O)CSC1=C(C#N)[C@H](c2ccco2)C(/C(O)=N/c2ccc(S(N)(=O)=O)cc2)=C(C)N1 [Decoy831] | Inactive (Decoy)
C=CCSc1ccccc1NC(=O)CSc1nnc(N/N=C/c2c(O)ccc3ccccc23)n1N [Decoy924] | Inactive (Decoy)
CCc1ccc2[nH]c(=O)c(CN(CCc3ccc(OC)c(OC)c3)Cc3nnnn3Cc3ccccc3)cc2c1 [Decoy770] | Inactive (Decoy)
COC(=O)[C@@H]1O[C@@H](O[C@@H]2CC[C@@]3(C)[C@@H](CC[C@H]4[C@H]3C(=O)C[C@@]3(C)[C@@H]4CC[C@]3(O)/C(COC(C)=O)=N/NC(N)=O)C2)[C@H](OC(C)=O)[C@@H](OC(C)=O)[C@@H]1OC(C)=O [Decoy959] | Inactive (Decoy)
CC1=CC(=O)CC(C)(C)[C@H]1/C=C/[C@@H](C)O[C@@H]1O[C@H](CO)[C@@H](O)[C@H](O)[C@H]1O[C@@H]1OC[C@](O)(CO)[C@H]1O [Decoy772] | Inactive (Decoy)
CCOC(=O)c1ccc(NC(=O)c2cc([N+](=O)[O-])ccc2NC(=O)CNCc2ccc3c(c2)OCO3)cc1 [Decoy729] | Inactive (Decoy)
C[C@H](CCC(=O)NCCS(=O)(=O)O)[C@H]1CC[C@H]2[C@H]3[C@H](O)C[C@@H]4C[C@H](OS(=O)(=O)O)CC[C@]4(C)[C@H]3C[C@H](O)[C@]12C [Decoy830] | Inactive (Decoy)
CCOC(=O)C1=C(C)NC(=O)N[C@H]1c1ccc(OCC(=O)N/N=C/c2cc(C)n(-c3ccc(Cl)c(Cl)c3)c2C)c(OC)c1 [Decoy745] | Inactive (Decoy)
CCOC(=O)c1ccc(NC(=O)C(=O)NCc2ccc(/C=C3/C(=O)N(c4ccc(C)c(Cl)c4)C(C)=C3C(=O)OC)o2)cc1 [Decoy845] | Inactive (Decoy)

Same assay, conditions: sheet 6QHD_actives_decoys; known STAT3 actives of the retrospective screening set; ref ChEMBL / literature; cited from earlier work

SMILES | Type (known STAT3 active)
CC(C)C[C@H](NC(=O)/C=C/c1ccc(OP(=O)(O)O)cc1)C(=O)N1CCC[C@H]1C(=O)N[C@@H](CCC(N)=O)COC(N)=O [CHEMBL573643] | Active
CC(=O)N[C@@H](Cc1ccc(OP(=O)(O)O)cc1)C(=O)N[C@@H](CC(C)C)C(=O)N1CCC[C@@H]1C(=O)N[C@H](CCC(N)=O)C(=O)N[C@@H](C(=O)N[C@H](C)C(=O)O)[C@@H](C)O [CHEMBL157727] (Ac-[pY]L[dP][dQ][d(aThr)][dA]-OH) | Active
CC(C)C[C@H](NC(=O)/C=C/c1ccc(OP(=O)(O)O)cc1)C(=O)N1C[C@H]2C[C@H]2[C@H]1C(=O)N[C@@H](CCC(N)=O)C(=O)NCc1ccccc1 [CHEMBL575497] | Active
CCCC[C@H](NC(=O)[C@H](Cc1ccc(OP(=O)(O)O)cc1)NC(C)=O)C(=O)N1CCC[C@H]1C(=O)N[C@@H](CCC(N)=O)C(=O)N[C@H](C(N)=O)[C@@H](C)O [CHEMBL197513] (Ac-[pY][Nle]PQT-NH2) | Active
NC(=O)CC[C@H](NC(=O)[C@@H]1Cc2cccc3c2N1C(=O)[C@@H](NC(=O)c1cc2cc(OP(=O)(O)O)ccc2[nH]1)CC3)C(=O)NCc1ccccc1 [CHEMBL452194] | Active

Same assay, conditions: sheet 6QHD_actives_decoys; retrospective screening set for STAT3 SH2 domain (PDB 6QHD); […]; ref DUD-E; cited from earlier work

SMILES | Type
Cc1ccc(NC(=O)CCC(=O)NNC(=O)CCCCC(=O)NNC(=O)CCC(=O)Nc2ccc(C)c(C)c2)cc1C [Decoy444] | Inactive (Decoy)
CCCNC(=O)CN1CCN(c2cc(C(=O)O)c3cc(NS(=O)(=O)c4cccc(C)c4)ccc3n2)CC1 [Decoy646] | Inactive (Decoy)
COc1ccc(S(=O)(=O)Nc2ccc(S(=O)(=O)Nc3nc(C)cc(C)n3)cc2)cc1F [Decoy560] | Inactive (Decoy)
O=c1c(C[C@H](O)CN2CCOCC2)c(O)n(C[C@@H](O)CN2CCOCC2)c(=O)n1C[C@H](O)CN1CCOCC1 [Decoy679] | Inactive (Decoy)
O=C(CCCN1CCC(O[C@@H]2O[C@H](C(=O)O)[C@@H](O)[C@H](O)[C@H]2O)(c2ccc(Cl)cc2)CC1)c1ccc(F)cc1 [Decoy692] | Inactive (Decoy)
COc1cc(NS(=O)(=O)c2ccc(NC(=O)CCCCC(=O)Nc3ccc(S(=O)(=O)/N=c4/cc(OC)nc(OC)[nH]4)cc3)cc2)nc(OC)n1 [Decoy429] | Inactive (Decoy)
CCCCCC[C@H]1C(=O)O[C@@H](C)[C@@H](NC(=O)c2cccc(NC=O)c2O)C(=O)O[C@@H](C)[C@H]1OC(=O)CCC [Decoy385] | Inactive (Decoy)
O=C(CCC(=O)Nc1ccc(S(=O)(=O)Nc2nccs2)cc1)Nc1ccc(S(=O)(=O)Nc2nccs2)cc1 [Decoy422] | Inactive (Decoy)

Same assay, conditions: sheet 6QHD_actives_decoys; retrospective screening set for STAT3 SH2 domain (PDB 6QHD); decoys generated with DUD-E and presumed inactive, not tested; ref DUD-E; cited from earlier work

SMILES | Type
COC(=O)[C@@H]1O[C@H](OC/C(=N/NC(N)=O)[C@@]2(O)CC[C@@H]3[C@@H]4CC[C@H]5C[C@H](OC(C)=O)CC[C@@]5(C)[C@H]4C(=O)C[C@]32C)[C@@H](OC(C)=O)[C@H](OC(C)=O)[C@H]1OC(C)=O [Decoy340] | Inactive (Decoy)
COc1cc(NC(=O)c2cnn3c2N[C@H](c2cc(OC)c(OC)c(OC)c2)C[C@@H]3C(F)(F)F)cc([N+](=O)[O-])c1 [Decoy512] | Inactive (Decoy)
CCOC(=O)c1cc(C(=O)OCC)c(=O)[nH]c1NN=C1CCN(c2ncc(C(F)(F)F)cc2Cl)CC1 [Decoy499] | Inactive (Decoy)
COc1cc(NC(=S)/N=C(\NCCc2c[nH]cn2)Nc2nc(C)cc(C)n2)c(OC)cc1Cl [Decoy651] | Inactive (Decoy)
CCCCN(CC(=O)Nc1c(-c2ccccc2)c(C)nn1-c1ccc(OC)cc1)C(=O)c1ccc(OC)cc1OC [Decoy368] | Inactive (Decoy)
CCOC(=O)Cn1nnnc1[C@@H](CC)N(CCc1cccc(C)c1)Cc1cc2cc(OCC)ccc2[nH]c1=O [Decoy609] | Inactive (Decoy)
Cc1ccc(S(=O)(=O)n2cc(/C=N\N=C3/NC(=O)[C@H](CC(=O)O)S3)c3ccccc32)cc1 [Decoy683] | Inactive (Decoy)
CC[C@H](C)[C@@H](NC(=O)CNC(=O)CCc1c(C)c2cc3c(C)coc3c(C)c2oc1=O)C(=O)O [Decoy650] | Inactive (Decoy)
COCCN(CCOC)S(=O)(=O)c1ccc(C(=O)Nc2sccc2C(=O)NN(C)C)cc1 [Decoy623] | Inactive (Decoy)
Cc1ccc(S(=O)(=O)NCc2ccco2)cc1C(=O)NNC(=O)c1nn(-c2ccccc2)cc1O [Decoy610] | Inactive (Decoy)
COC(=O)[C@@H]1O[C@H](OC/C(=N/NC(N)=O)[C@H]2CC[C@@H]3[C@@H]4CC[C@@H]5C[C@H](OC(C)=O)CC[C@@]5(C)[C@H]4[C@H](O)C[C@@]23C)[C@@H](OC(C)=O)[C@H](OC(C)=O)[C@H]1OC(C)=O [Decoy498] | Inactive (Decoy)
NC(=O)CSc1nnc(NC(=O)CSc2nnc(N/N=C/c3cccc4ccccc34)n2N)s1 [Decoy376] | Inactive (Decoy)
Cc1nnc(SCC2=C(C(=O)NCC(C)C)N3C(=O)[C@H](NC(=O)c4nn(C)c(C)c4Br)[C@H]3SC2)s1 [Decoy523] | Inactive (Decoy)
COc1cc(NS(=O)(=O)c2ccc(NC(=S)NC(=O)/C=C/c3cccc4ccccc34)cc2)ncn1 [Decoy659] | Inactive (Decoy)
CCOC(=O)c1ccc(NC(=O)CSc2nc3cc(C(=O)OC)ccc3c(=O)n2CCN2CCOCC2)cc1 [Decoy371] | Inactive (Decoy)
Cn1c(CNc2ccc(C(=N)N)cc2)nc2cc(C(=O)N(CCC(=O)O[C@@H]3O[C@H](C(=O)O)[C@@H](O)[C@H](O)[C@H]3O)c3ccccn3)ccc21 [Decoy516] | Inactive (Decoy)
C=C1CC[C@H]2[C@](C)(CO[C@H]3O[C@@H](CO[C@H]4O[C@@H](CO)[C@@H](O)[C@H]4O)[C@@H](O)[C@@H](O)[C@H]3O)[C@@H](O)CC[C@]2(C)[C@H]1CC/C(C)=C\CO [Decoy612] | Inactive (Decoy)
COc1ccc(/C=N\N=C2/NC(=O)[C@@H](CC(=O)Nc3ccc([N+](=O)[O-])cc3)S2)c(C(=O)O)c1OC [Decoy694] | Inactive (Decoy)
COc1ccc(C(=O)NCCc2nnc3ccc(SCC(=O)Nc4ccc(OC(F)(F)F)cc4)nn23)cc1 [Decoy531] | Inactive (Decoy)
CC(=O)N[C@@H]1[C@@H](OC(C)=O)[C@H](OC(C)=O)[C@@H](COC(C)=O)O[C@H]1Sc1nnc(COc2ccccc2C)n1C1CCCC1 [Decoy405] | Inactive (Decoy)
CN(C)S(=O)(=O)c1cccc(C(=O)NNC(=O)c2cn(-c3ccccc3)nc2-c2cccnc2)c1 [Decoy350] | Inactive (Decoy)
C=C(CO[C@@H]1[C@H](O)[C@H](CO)O[C@@H](OCC#Cc2ccc(O)c(C(=O)OC)c2)[C@H]1NC(C)=O)C(=O)OCC [Decoy506] | Inactive (Decoy)
COc1ccc(N([C@@H](C)C(=O)Nc2ccc(S(=O)(=O)Nc3ccc(Cl)c(C(F)(F)F)c3)cc2)S(C)(=O)=O)cc1 [Decoy412] | Inactive (Decoy)
COC(=O)c1ccc(C(=O)OC)c(NC(=O)c2ccc(C(=O)Nc3cc(C(=O)OC)ccc3C(=O)OC)cc2)c1 [Decoy335] | Inactive (Decoy)
